Here are results for ten compounds from ChEMBL document CHEMBL1201862, “PubChem BioAssay data set” (2004).

The structures appear in SMILES notation.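 Protocol summary: plate cells (96-well), add compound at 5 concentrations, incubate 48 h, interpolate endpoints linearly. GI50 = concentration required for 50% inhibition of growth.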 Calls of active or inactive are those of the source. No stated cut-off is given here; in the data, active = GI50 up to about 1.1 µM and inactive = higher.

Among the test systems are K562; KM12; EKVX; NCI-H522; DU-145; IGROV-1; HL-60; HOP-62; RPMI-8226; HCT-15; T47D; SF-268; OVCAR-4; RXF 393; SNB-19; OVCAR-5; M14; UACC-257; TK-10; CCRF-CEM.
Experiment in all cases: NCI anticancer screen, dose series, 48 h

Turning to `N/C(=N\c1ccc(Cl)cc1)NS(=O)(=O)c1c(C(F)(F)F)cccc1C(F)(F)F`, the GI50 was > 100 µM (inactive) in the experiment with K562; 4.89 µM (inactive) in the experiment on KM12; 5.93 µM (inactive) in the experiment on EKVX; 10.1 µM (inactive) in the experiment with NCI-H522; 46.5 µM (inactive) with DU-145; 16.6 µM (inactive) with IGROV-1. Moreover, the GI50 in the experiment on HL-60 is 20 µM (inactive); in the experiment on HOP-62, 24 µM (inactive); with RPMI-8226, > 100 µM (inactive); with HCT-15, 17 µM; in the experiment on T47D, 12.5 µM (inactive); with SF-268 it was 23.3 µM (inactive). For the same compound, the GI50 is 17.5 µM (inactive) in the experiment with OVCAR-4; 45.8 µM (inactive) in the experiment on RXF 393; 18.9 µM (inactive) in the experiment on SNB-19; 20.2 µM (inactive) in the experiment with OVCAR-5; 26.3 µM (inactive) in the experiment with M14; 18.6 µM (inactive) in the experiment on UACC-257. The GI50 in the experiment on TK-10 is 24 µM (inactive).

In the case of `O=C1c2ccccc2CCC1C(O)(C(F)(F)F)C(F)(F)F` (configuration not stated), the GI50 in the experiment with K562, in the experiment on KM12, in the experiment on EKVX, with NCI-H522, in the experiment with DU-145 and in the experiment on IGROV-1 was > 100 µM (inactive) throughout. Also, the GI50 in the experiment on HL-60 is > 10 µM (inactive); in the experiment with RPMI-8226, > 100 µM (inactive); in the experiment with HCT-15, 63 µM; in the experiment on T47D, 44.3 µM (inactive); in the experiment with OVCAR-4, > 100 µM (inactive); in the experiment on RXF 393 it was 93.8 µM (inactive). Also, the GI50 in the experiment on SNB-19, with OVCAR-5, in the experiment on M14, in the experiment with UACC-257, in the experiment on CCRF-CEM and in the experiment with TK-10 was > 100 µM (inactive) in each case.

In the case of `Cc1nc2sc(CCl)nn2c(=O)c1Cl`, the GI50 with K562 was 12.1 µM (inactive); in the experiment with KM12 it was 11.9 µM (inactive); in the experiment with EKVX, 11.1 µM (inactive); in the experiment with NCI-H522 it was 3.15 µM (inactive); in the experiment with DU-145, 16.1 µM (inactive); with IGROV-1 it was 15 µM (inactive). Besides, the GI50 in the experiment with HL-60 is 13.1 µM (inactive); in the experiment with HOP-62, 17.6 µM (inactive); with RPMI-8226, 5.62 µM (inactive); with HCT-15 it was 11.5 µM; with T47D, 13.1 µM (inactive); in the experiment with SF-268 it was 14.2 µM (inactive). The GI50 in the experiment on OVCAR-4 is 15.7 µM (inactive); in the experiment on RXF 393, 4.57 µM (inactive); in the experiment on SNB-19, 16.3 µM (inactive); in the experiment on OVCAR-5, 15.1 µM (inactive); in the experiment with M14, 12.1 µM (inactive); with UACC-257, 12.3 µM (inactive). The GI50 in the experiment with CCRF-CEM was 3.61 µM (inactive); in the experiment with TK-10, 12.5 µM (inactive).

With `CC1(C)CCC[C@@]2(C)C1CC[C@@]1(CO1)[C@@H]2/C=C\C(C=O)CC=O` (some centres not stated), the GI50 with K562 was 26.5 µM (inactive); with KM12 it was > 67.9 µM (inactive); in the experiment on EKVX, > 100 µM (inactive); in the experiment with NCI-H522 it was 42.4 µM (inactive); in the experiment with DU-145, > 100 µM (inactive); with IGROV-1, > 100 µM (inactive). Besides, the GI50 with HL-60 is 21.6 µM (inactive); in the experiment with HOP-62, > 100 µM (inactive); in the experiment with RPMI-8226, 10.9 µM (inactive); with HCT-15, 73.6 µM; with T47D, 99.3 µM (inactive); in the experiment with SF-268, > 100 µM (inactive). The GI50 is > 100 µM (inactive) in the experiment with OVCAR-4; 99.8 µM (inactive) in the experiment on RXF 393; > 100 µM (inactive) in the experiment with SNB-19; > 100 µM (inactive) in the experiment on OVCAR-5; > 100 µM (inactive) with M14; > 100 µM (inactive) in the experiment on UACC-257. Besides, the GI50 was 17.3 µM (inactive) in the experiment on CCRF-CEM and > 100 µM (inactive) with TK-10.

Regarding `O=C(CNC(=O)OCc1ccccc1)NCCCCC(NC(=O)OCc1ccccc1)C(=O)O` (configuration not stated), the GI50 in the experiment on K562, with KM12, in the experiment with EKVX, with NCI-H522, in the experiment on DU-145 and in the experiment with IGROV-1 was > 100 µM (inactive) in each case. The GI50 in the experiment with HL-60 was > 100 µM (inactive); with HOP-62 it was > 100 µM (inactive); in the experiment with RPMI-8226, > 100 µM (inactive); with HCT-15 it was greater than 100 µM; in the experiment on T47D, > 100 µM (inactive); in the experiment on SF-268, > 100 µM (inactive). Moreover, the GI50 in the experiment with OVCAR-4, with RXF 393, with SNB-19, with OVCAR-5, in the experiment on M14 and in the experiment on UACC-257 was > 100 µM (inactive) in each case. Besides, the GI50 in the experiment with CCRF-CEM and in the experiment with TK-10 was > 100 µM (inactive) each time.

In the case of `N#CC1=C(N)C(C#N)(C#N)C(c2ccc(F)cc2)C=C1C1CC1` (configuration not stated), the GI50 is 6.03 µM (inactive) in the experiment on K562; 4.14 µM (inactive) in the experiment with KM12; 17.6 µM (inactive) in the experiment with EKVX; 3.78 µM (inactive) in the experiment with NCI-H522; 12.9 µM (inactive) in the experiment on DU-145; 12.9 µM (inactive) in the experiment on IGROV-1. Further, the GI50 with HL-60 was 4.13 µM (inactive); in the experiment with HOP-62, 13.1 µM (inactive); in the experiment with RPMI-8226, 7.05 µM (inactive); with HCT-15 it was 9.77 µM; with T47D, 12.1 µM (inactive); in the experiment with SF-268, 4.81 µM (inactive). The GI50 in the experiment with RXF 393 was 5.96 µM (inactive); with SNB-19, 13.2 µM (inactive); in the experiment with OVCAR-5 it was 12.6 µM (inactive); with M14, 4.21 µM (inactive); with UACC-257, 9.12 µM (inactive); with CCRF-CEM, 4.71 µM (inactive). Further, the GI50 with TK-10 is 15.5 µM (inactive).

On to `Fc1c(F)c(C(F)(F)F)c(F)c(F)c1N/N=C\c1c[nH]c2ccccc12`, for which the GI50 was 2.87 µM (inactive) in the experiment with K562; 1.94 µM (inactive) in the experiment with KM12; 2.84 µM (inactive) in the experiment with EKVX; 1.74 µM (inactive) in the experiment on NCI-H522; 3.64 µM (inactive) in the experiment with DU-145; 1.26 µM (inactive) in the experiment on IGROV-1. In addition, the GI50 in the experiment with HL-60 is 2.54 µM (inactive); in the experiment with HOP-62, 1.55 µM (inactive); in the experiment with RPMI-8226, 2.81 µM (inactive); in the experiment on HCT-15, 3.37 µM; with T47D, 2.4 µM (inactive); in the experiment with SF-268 it was 5.24 µM (inactive). Further, the GI50 in the experiment on OVCAR-4 is 2.44 µM (inactive); in the experiment on RXF 393 it was 2 µM (inactive); in the experiment on SNB-19, 2.86 µM (inactive); with OVCAR-5, 3.94 µM (inactive); in the experiment on M14, 1.62 µM (inactive); in the experiment on UACC-257, 3.52 µM (inactive). The GI50 in the experiment on CCRF-CEM is 1.23 µM (inactive); in the experiment on TK-10 it was 4.48 µM (inactive).

Turning to `C=C(C(=O)O)[C@@H]1C[C@@H](OC(C)=O)[C@]2(C)CC/C=C(\C)CCC[C@H](C)[C@H](O)[C@@H]1O2`, the GI50 in the experiment on K562 is 75.2 µM (inactive); in the experiment on KM12 it was 41.9 µM (inactive); with EKVX it was 45.5 µM (inactive); in the experiment with NCI-H522 it was 18 µM (inactive); in the experiment on DU-145 it was 83.9 µM (inactive); in the experiment on IGROV-1 it was 36.8 µM (inactive). In addition, the GI50 is 22.3 µM (inactive) in the experiment with HL-60; 17 µM (inactive) in the experiment with RPMI-8226; 41.8 µM in the experiment on HCT-15; > 100 µM (inactive) in the experiment on T47D; > 100 µM (inactive) in the experiment on SF-268; > 100 µM (inactive) in the experiment on OVCAR-4. Further, the GI50 was 18.5 µM (inactive) with RXF 393; > 100 µM (inactive) with OVCAR-5; 28.2 µM (inactive) in the experiment on M14; 47 µM (inactive) with UACC-257; 22.4 µM (inactive) in the experiment on CCRF-CEM; 57.4 µM (inactive) with TK-10.

Consider `CCC(C)C1=C(O)[N+]2([O-])Oc3ccc(-c4c(O)c(O)c(-c5ccc(O)cc5)c(OC(C)=O)c4OC(C)=O)cc3OC2(C(C)CC)C(=O)N1O` (configuration not stated), for which the GI50 in the experiment on K562 is 35.4 µM (inactive); in the experiment on KM12, > 50 µM (inactive); in the experiment on EKVX it was 39.5 µM (inactive); in the experiment with NCI-H522 it was 23.5 µM (inactive); in the experiment on DU-145, > 50 µM (inactive); with IGROV-1 it was > 50 µM (inactive). The GI50 in the experiment on HL-60 is > 50 µM (inactive); in the experiment with RPMI-8226 it was > 50 µM (inactive); with HCT-15, greater than 50 µM; with T47D it was > 50 µM (inactive); in the experiment with SF-268, > 50 µM (inactive); with OVCAR-4, > 50 µM (inactive). In addition, the GI50 in the experiment with RXF 393 was > 50 µM (inactive); in the experiment with SNB-19 it was > 50 µM (inactive); in the experiment with OVCAR-5 it was > 50 µM (inactive); with M14, > 50 µM (inactive); in the experiment with UACC-257, > 50 µM (inactive); with CCRF-CEM, 1.88 µM (inactive). Further, the GI50 with TK-10 is > 50 µM (inactive).

In the case of `COC(=O)C1[C@H](C(=O)OC)C1(Br)CBr` (some centres not stated), the GI50 in the experiment on K562 is > 100 µM (inactive); with KM12, > 100 µM (inactive); in the experiment on EKVX, > 100 µM (inactive); in the experiment with NCI-H522, 8.95 µM (inactive); in the experiment with DU-145, > 100 µM (inactive); in the experiment on IGROV-1, > 100 µM (inactive). Besides, the GI50 was > 100 µM (inactive) with HL-60; > 100 µM (inactive) with HOP-62; > 100 µM (inactive) in the experiment with RPMI-8226; greater than 100 µM in the experiment with HCT-15; > 100 µM (inactive) with T47D; > 100 µM (inactive) in the experiment on SF-268. Also, the GI50 with OVCAR-4, with RXF 393, in the experiment on SNB-19, with OVCAR-5, in the experiment on M14 and with UACC-257 was > 100 µM (inactive) throughout. In the experiment with TK-10, the GI50 is > 100 µM (inactive).
